Data as given in patent publication US20180099931A1 (AbbVie S.à.r.l., priority 2016, published 2018).
Read-outs that look alike come from different tables or passages of the source.

Target: T1, F508delCFTR (Homo sapiens, UniProt P13569, DEL508-508)
T1 construct: expressed in transfected cells; host or cells: CFBE41o- human lung-derived epithelial cells (CFBE4lo-F508delCFTR-HRP), doxycycline-inducible
Test: Cell Surface Expression-Horse Radish Peroxidase (CSE-HRP) Assay;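 for Maximum % activity (with co-corrector): co-corrector and positive control are both the same reference corrector at 2 µM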;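 for Maximum % activity (without co-corrector): percent of the 2 µM on-plate positive control corrector response above DMSO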
Format: cell-based
Conditions: for Emax / Maximum % activity (with co-corrector): maximum at any tested concentration, normalized to on-plate positive control; for Emax: read-out: Maximum % activity (without co-corrector)

[1] = test compound without co-corrector
[2] = test compound without co-corrector, read-out: EC50 (without co-corrector)
[3] = with co-corrector (2 μM of 3-[(2R,4R)-4-({[1-(2,2-difluoro-1,3-benzodioxol-5-yl)cyclopropyl]carbonyl}amino)-7-methoxy-3,4-dihydro-2H-chromen-2-yl]benzoic acid)
[4] = with co-corrector (2 μM of 3-[(2R,4R)-4-({[1-(2,2-difluoro-1,3-benzodioxol-5-yl)cyclopropyl]carbonyl}amino)-7-methoxy-3,4-dihydro-2H-chromen-2-yl]benzoic acid), read-out: EC50 (with co-corrector)

T1 sequence (P13569 with tags, fused parts or gaps DEL508-508): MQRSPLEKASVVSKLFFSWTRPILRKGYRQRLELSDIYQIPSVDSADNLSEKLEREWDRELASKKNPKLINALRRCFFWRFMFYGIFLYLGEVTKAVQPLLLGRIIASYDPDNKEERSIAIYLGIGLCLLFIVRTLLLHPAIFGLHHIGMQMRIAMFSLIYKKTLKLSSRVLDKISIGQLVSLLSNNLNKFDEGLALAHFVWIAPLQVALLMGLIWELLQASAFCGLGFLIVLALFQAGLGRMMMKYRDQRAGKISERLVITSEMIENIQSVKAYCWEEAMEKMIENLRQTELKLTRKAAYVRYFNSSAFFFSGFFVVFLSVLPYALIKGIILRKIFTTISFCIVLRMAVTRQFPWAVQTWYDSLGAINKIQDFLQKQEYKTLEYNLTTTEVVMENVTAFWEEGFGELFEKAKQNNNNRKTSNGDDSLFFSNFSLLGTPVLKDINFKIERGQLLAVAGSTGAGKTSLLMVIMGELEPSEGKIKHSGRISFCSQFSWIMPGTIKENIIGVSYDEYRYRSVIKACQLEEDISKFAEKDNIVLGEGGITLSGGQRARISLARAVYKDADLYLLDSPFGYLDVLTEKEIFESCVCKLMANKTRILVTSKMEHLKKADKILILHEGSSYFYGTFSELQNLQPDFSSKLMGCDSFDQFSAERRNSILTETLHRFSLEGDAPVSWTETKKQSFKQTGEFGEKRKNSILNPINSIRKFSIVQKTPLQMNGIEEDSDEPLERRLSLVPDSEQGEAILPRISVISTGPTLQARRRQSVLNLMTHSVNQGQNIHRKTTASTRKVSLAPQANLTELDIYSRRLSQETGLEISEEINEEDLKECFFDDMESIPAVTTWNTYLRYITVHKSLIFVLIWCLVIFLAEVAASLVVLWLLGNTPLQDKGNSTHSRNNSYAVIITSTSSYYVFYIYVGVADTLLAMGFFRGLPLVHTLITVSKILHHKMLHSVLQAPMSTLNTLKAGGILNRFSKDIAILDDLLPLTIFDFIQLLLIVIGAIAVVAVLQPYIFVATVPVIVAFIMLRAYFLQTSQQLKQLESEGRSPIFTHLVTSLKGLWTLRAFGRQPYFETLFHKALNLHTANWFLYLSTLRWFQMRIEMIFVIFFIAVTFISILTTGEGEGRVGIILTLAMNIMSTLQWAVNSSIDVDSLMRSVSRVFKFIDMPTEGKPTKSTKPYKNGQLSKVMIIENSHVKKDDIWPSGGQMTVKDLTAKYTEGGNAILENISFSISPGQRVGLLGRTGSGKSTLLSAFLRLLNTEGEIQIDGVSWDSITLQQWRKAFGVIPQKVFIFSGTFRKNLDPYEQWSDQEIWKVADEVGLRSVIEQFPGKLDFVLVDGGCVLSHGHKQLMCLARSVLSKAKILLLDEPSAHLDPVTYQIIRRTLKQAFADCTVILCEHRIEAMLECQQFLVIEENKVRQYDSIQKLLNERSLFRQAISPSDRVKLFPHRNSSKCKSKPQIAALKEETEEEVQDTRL

Row | Compound | Emax [1] [%] | EC50 [2] [nM] | Maximum % activity (with co-corrector) [3] | EC50 [4] [nM]
1 | COc1ncc(-c2ccccc2F)cc1CN[C@H]1[C@H](C(C)(C)C)[C@@H](C(=O)O)N(C(=O)C2CCCCC2)[C@H]1c1ccccc1F [II-424] | 100 to 200 | < 1000 | +++ (≥350) | < 1000
2 | COc1ncc(C(F)(F)F)cc1CN[C@H]1[C@H](C(C)(C)C)[C@@H](C(=O)O)N(C(=O)OC(C)C)[C@H]1c1ccccc1 [II-425] | > 200 | 1000 to 10000 | +++ (≥350) | 1000 to 10000
3 | COc1nc(C(C)(C)C)ccc1CN[C@H]1[C@H](C(C)(C)C)[C@@H](C(=O)O)N(C(=O)Cc2ccccc2C)[C@H]1c1ccccc1C(C)C [II-427] | > 200 | < 1000 | +++ (≥350) | < 1000
4 | COc1nc(C(C)(C)C)ccc1CN[C@H]1[C@H](C(C)(C)C)[C@@H](C(=O)O)N(C(=O)C2CCC(C)(C)C2)[C@H]1c1ccccc1 (stereo partly drawn) [II-428] | 100 to 200 | 1000 to 10000 | +++ (≥350) | 1000 to 10000
5 | COc1nc(C(C)(C)C)ccc1CN[C@H]1[C@H](C(C)(C)C)[C@@H](C(=O)O)N(C(=O)Cc2ccccc2C)[C@H]1c1ccccc1 [II-429] | 100 to 200 | < 1000 | +++ (≥350) | < 1000
6 | COc1nc(C(C)(C)C)ccc1CN[C@H]1[C@H](C(C)(C)C)[C@@H](C(=O)O)N(C(=O)[C@H](OC)c2ccccc2)[C@H]1c1ccccc1 [II-433] | 100 to 200 | < 1000 | +++ (≥350) | < 1000
7 | COc1ncc(C(F)(F)F)cc1CN[C@H]1[C@H](C(C)(C)C)[C@@H](C(=O)O)N(C(=O)C2CCC(C)(C)O2)[C@H]1c1ccccc1 (stereo partly drawn) [II-434] | 100 to 200 | 1000 to 10000 | +++ (≥350) | 1000 to 10000
8 | COc1ncc(C(F)(F)F)cc1CN[C@H]1[C@H](C(C)(C)C)[C@@H](C(=O)O)N(C(=O)C2CCc3ccc(F)cc3O2)[C@H]1c1ccccc1 (stereo partly drawn) [II-435] | < 100 | 1000 to 10000 | ++ (≥150 and <350) | 1000 to 10000
9 | COc1ccc(C(F)(F)F)cc1CN[C@H]1[C@H](C(C)(C)OC)[C@@H](C(=O)O)N(C(=O)C2CCCCC2)[C@H]1c1cccnc1OC [II-436] | 100 to 200 | 1000 to 10000 | +++ (≥350) | 1000 to 10000
10 | COc1ccc(C(F)(F)F)cc1CN[C@H]1[C@H](C(C)(C)OC)[C@@H](C(=O)O)N(C(=O)C2CCCCC2)[C@H]1c1cccnc1N(C)C [II-437] | > 200 | 1000 to 10000 | +++ (≥350) | 1000 to 10000
11 | C/C=C/CC(C/C=C/C)C(=O)N1[C@H](C(=O)O)[C@@H](C(C)(C)C)[C@H](NCc2cc(C(C)(C)C)ccc2OC)[C@@H]1c1ccccc1 [II-439] | > 200 | 1000 to 10000 | +++ (≥350) | < 1000
12 | COc1ncc(C2(C)CC2)cc1CN[C@H]1[C@H](C(C)(C)C)[C@@H](C(=O)O)N(C(=O)C2CCCCC2)[C@H]1c1ccccc1 [II-440] | 100 to 200 | 1000 to 10000 | +++ (≥350) | 1000 to 10000
13 | COc1ccc([Si](C)(C)C)cc1CN[C@H]1[C@H](C(C)(C)C)[C@@H](C(=O)O)N(C(=O)[C@H]2CCCC(F)(F)C2)[C@H]1c1ccccc1 [II-441] | – | < 1000 | – | < 1000
14 | COc1ccc(C(C)(C)C)cc1CN[C@H]1[C@H](C(C)(C)C)[C@@H](C(=O)O)N(C(=O)C2CC23CCOCC3)[C@H]1c1ccccc1 (stereo partly drawn) [II-442] | < 100 | 1000 to 10000 | +++ (≥350) | 1000 to 10000
15 | COc1ccc(C(C)(C)C)cc1CN[C@H]1[C@H](C(C)(C)C)[C@@H](C(=O)O)N(C(=O)C2CCO2)[C@H]1c1ccccc1 (stereo partly drawn) [II-443] | > 200 | 1000 to 10000 | +++ (≥350) | 1000 to 10000
16 | COc1ccc(C(C)(C)C)cc1CN[C@H]1[C@H](C(C)(C)C)[C@@H](C(=O)O)N(C(=O)c2cc(C)n(C)n2)[C@H]1c1ccccc1 [II-445] | 100 to 200 | 1000 to 10000 | +++ (≥350) | 1000 to 10000
17 | COc1ncc(C(F)(F)F)cc1CN[C@H]1[C@H](C(C)(C)C)[C@@H](C(=O)O)N(C(=O)C2Cc3cccc(C)c3O2)[C@H]1c1ccccc1 (stereo partly drawn) [II-446] | < 100 | 1000 to 10000 | ++ (≥150 and <350) | 1000 to 10000
18 | COc1ccc(-c2ccccc2)cc1CN[C@H]1[C@H](C(C)(C)C)[C@@H](C(=O)O)N(C(=O)[C@H]2CCCCO2)[C@H]1c1cccnc1N(C)C [II-447] | 100 to 200 | 1000 to 10000 | +++ (≥350) | 1000 to 10000

Row | Compound | Emax [1] [%] | EC50 [2] [nM] | Maximum % activity (with co-corrector) [3] | EC50 [4] [nM]
19 | COc1ccc(-c2ccccc2)cc1CN[C@H]1[C@H](C(C)(C)C)[C@@H](C(=O)O)N(C(=O)[C@@H]2CCCCO2)[C@H]1c1cccnc1N(C)C [II-450] | > 200 | 1000 to 10000 | +++ (≥350) | < 1000
20 | COc1ccc(C(C)(C)C)cc1CN[C@H]1[C@H](C(C)(C)C)[C@@H](C(=O)O)N(C(=O)[C@H]2CCCCO2)[C@H]1c1ccccc1 [II-451] | > 200 | 1000 to 10000 | +++ (≥350) | 1000 to 10000
21 | COc1ccc(C(C)(C)C)cc1CN[C@H]1[C@H](C(C)(C)C)[C@@H](C(=O)O)N(C(=O)C(C)C2CCCCO2)[C@H]1c1ccccc1 (stereo partly drawn) [II-457] | > 200 | 1000 to 10000 | +++ (≥350) | 1000 to 10000
22 | COc1ccc(C(C)(C)C)cc1CN[C@H]1[C@H](C(C)(C)C)[C@@H](C(=O)O)N(C(=O)[C@@H]2CCCCO2)[C@H]1c1ccccc1F [II-460] | > 200 | 1000 to 10000 | +++ (≥350) | < 1000
23 | COc1ncc(C(F)(F)F)cc1N[C@H]1[C@H](C(C)(C)C)[C@@H](C(=O)O)N(C(=O)C2CCCCC2)[C@H]1c1cccnc1N(C)C [II-461] | < 100 | 1000 to 10000 | ++ (≥150 and <350) | 1000 to 10000
24 | COc1ccc(C2(C)CCC2)cc1CN[C@H]1[C@H](C(C)(C)C)[C@@H](C(=O)O)N(C(=O)C2CCCCC2)[C@H]1c1ccccc1 [II-462] | > 200 | < 1000 | +++ (≥350) | < 1000
25 | COc1ccc(C(C)(C)C)cc1CN[C@H]1[C@H](C(C)(C)C)[C@@H](C(=O)O)N(C(=O)C2CCC(O)(C(F)(F)F)CC2)[C@H]1c1cccnc1N(C)C (stereo partly drawn) [II-463] | 100 to 200 | 1000 to 10000 | +++ (≥350) | 1000 to 10000
26 | COc1ccc(C(C)(C)C)cc1CN[C@H]1[C@H](C(C)(C)C)[C@@H](C(=O)O)N(C(=O)c2ccc(Oc3ccccc3)cc2)[C@H]1c1cccnc1N(C)C [II-464] | 100 to 200 | < 1000 | +++ (≥350) | < 1000
27 | COc1ccc(C(C)(C)C)cc1CN[C@H]1[C@H](C(C)(C)C)[C@@H](C(=O)O)N(C(=O)c2ccc(OC3CCOCC3)cc2)[C@H]1c1cccnc1N(C)C [II-465] | > 200 | 1000 to 10000 | +++ (≥350) | < 1000
28 | COc1ccc(C(C)(C)C)cc1CN[C@H]1[C@H](C(C)(C)C)[C@@H](C(=O)O)N(C(=O)c2ccc(Oc3ccccn3)cc2)[C@H]1c1cccnc1N(C)C [II-466] | > 200 | < 1000 | +++ (≥350) | < 1000
29 | COc1ccc(C(C)(C)C)cc1CN[C@H]1[C@H](C(C)(C)C)[C@@H](C(=O)O)N(C(=O)c2ccc(OC(F)(F)F)cc2)[C@H]1c1cccnc1N(C)C [II-467] | 100 to 200 | < 1000 | +++ (≥350) | < 1000
30 | COc1ccc(C(C)(C)C)cc1CN[C@H]1[C@H](C(C)(C)C)[C@@H](C(=O)O)N(C(=O)C2CCC(F)(F)CC2)[C@H]1c1cccnc1N(C)C [II-468] | 100 to 200 | 1000 to 10000 | +++ (≥350) | 1000 to 10000
31 | COc1ccc(C(C)(C)C)cc1CN[C@H]1[C@H](C(C)(C)C)[C@@H](C(=O)O)N(C(=O)C2CC(C)CC(C)C2)[C@H]1c1cccnc1N(C)C (stereo partly drawn) [II-469] | 100 to 200 | 1000 to 10000 | +++ (≥350) | 1000 to 10000
32 | COc1cc(C(F)(F)F)ccc1CN[C@H]1[C@H](C23CC(C2)C3)[C@@H](C(=O)O)N(C(=O)C2CCCCC2)[C@H]1c1ccccc1 [II-470] | 100 to 200 | 1000 to 10000 | +++ (≥350) | < 1000
33 | COc1ncc(C2CCC2)cc1CN[C@H]1[C@H](C(C)(C)C)[C@@H](C(=O)O)N(C(=O)C2COc3ccccc3O2)[C@H]1c1ccccc1 (stereo partly drawn) [II-474] | 100 to 200 | 1000 to 10000 | +++ (≥350) | 1000 to 10000
34 | COc1ncc(C2CCC2)cc1CN[C@H]1[C@H](C(C)(C)C)[C@@H](C(=O)O)N(C(=O)c2ccc3c(c2)OCCO3)[C@H]1c1ccccc1 [II-475] | < 100 | 1000 to 10000 | ++ (≥150 and <350) | 1000 to 10000
35 | COc1ncc(C2CCC2)cc1CN[C@H]1[C@H](C(C)(C)C)[C@@H](C(=O)O)N(C(=O)C2CCc3cc(F)ccc3O2)[C@H]1c1ccccc1 (stereo partly drawn) [II-476] | 100 to 200 | 1000 to 10000 | +++ (≥350) | 1000 to 10000
